Results: patent US11661396B2, “Crystalline forms of zuclomiphene citrate” (Apotex Inc., priority 2020, dated 2023)
Where a name gives a salt, the structure may show the parent alone. Blank lines part the entries; values can stand above or below the compound they belong to.

What was measured:
[1] = PXRD studies of capped and uncapped samples maintained in a 40° C./75% RH stability chamber; type: physicochemical
Experimental: Zuclomiphene citrate Form APO-1 can be characterized by a PXRD diffractogram comprising, among other peaks, characteristic peaks, expressed in degrees 2θ (±0.2°), at 8.8°, 9.6° and 11.7°. Preferably, the PXRD diffractogram further comprises at least three peaks, expressed in degrees 2θ (±0.2°), selected from the group consisting of 10.9°, 12.4°, 14.7°, 14.9°, 17.3°, 17.8°, 18.6°, 19.9°, 20.5°, 23.6° and 25.4°. More preferably, the PXRD diffractogram further comprises peaks, expressed in degrees 2θ (±) 0.2°, at 10.9°, 12.4°, 14.7°, 14.9°, 17.3°, 17.8°, 18.6°, 19.9°, 20.5°, 23.6° and 25.4°.
Zuclomiphene citrate Form APO-III can be characterized by a PXRD diffractogram comprising, among other peaks, characteristic peaks, expressed in degrees 2θ (±0.2°), at 8.7°, 9.8° and 10.5°. Preferably, the PXRD diffractogram further comprises at least three peaks, expressed in degrees 2θ (±0.2°), selected from the group consisting of 11.6°, 12.3°, 15.3°, 16.9°, 18.0°, 18.6°, 19.4°, 20.4°, 21.0° and 24.5°. More preferably, the PXRD diffractogram further comprises peaks, expressed in degrees 2θ (±0.2°), at 11.6°, 12.3°, 15.3°, 16.9°, 18.0°, 18.6°, 19.4°, 20.4°, 21.0° and 24.5°. […]
PXRD diffractograms were recorded on a Bruker D8 Discover powder X-ray diffractometer (Bruker-AXS, Karlsruhe, Germany). […] Raw data were evaluated using the program EVA (Bruker-AXS, Karlsruhe, Germany).

[2] = Thermodynamic stability of the crystalline form; type: physicochemical
Description: Zuclomiphene citrate Form APO-IV can be prepared by gradual addition of a solution of citric acid in a suitable solvent, preferably an alcohol or ketone solvent such as methanol or acetone, to a solution of zuclomiphene free base in a suitable solvent, preferably an alcohol solvent such as 2-methyl-1-propanol or 1-butanol, more preferably an ester solvent, such as ethyl acetate. Preferably, the solution of zuclomiphene free base is heated to an elevated temperature prior to addition of the citric acid solution, preferably in the range of about 50° C. to about 70° C. Following addition, the resulting mixture is preferably charged with Form APO-IV seeds and maintained at elevated temperature for a time (′aged), preferably in the range of about 16 hours to about 4 days, more preferably in the range of about 16 hours to about 48 hours. Following aging, the resulting mixture is preferably cooled to a temperature in the range of about 0° C. to about 35° C., most preferably room temperature, prior to isolation of the solid by filtration and drying, if necessary. Drying can be conducted in vacuo, preferably at a temperature in the range of about 50° C. to about 70° C., preferably for about 18 hours to about 3 days.

[3] = test system: hot flashes in men with prostate cancer on androgen deprivation therapy; settings: 50 mg zuclomiphene citrate, interim Phase 2 clinical trial results; cited from earlier work

SMILES: CCN(CC)CCOc1ccc(/C(=C(\Cl)c2ccccc2)c2ccccc2)cc1 [Form APO-I, zuclomiphene citrate]
change in the crystalline form (PXRD) ([1]; at least 4 weeks): no change in the crystalline form occurred

SMILES: CCN(CC)CCOc1ccc(/C(=C(\Cl)c2ccccc2)c2ccccc2)cc1 [Form APO-III, zuclomiphene citrate]
change in the crystalline form (PXRD) ([1]; at least 8 weeks): no change in the crystalline form occurred

thermodynamic stability [2]: thermodynamically stable
SMILES: CCN(CC)CCOc1ccc(/C(=C(\Cl)c2ccccc2)c2ccccc2)cc1 [Form APO-IV, zuclomiphene citrate]

SMILES: CCN(CC)CCOc1ccc(/C(=C(\Cl)c2ccccc2)c2ccccc2)cc1 [zuclomiphene citrate, 2-[4-[(Z)-2-chloro-1,2-diphenylethenyl]phenoxy]-N,N-diethylethanamine]
decrease in moderate to severe hot flashes from baseline [3]: statistically significant decrease
